According to patent US6942663B2, “Laser treatment of cutaneous vascular lesions” (Board of Regents, The University of Texas System, priority 2002, dated 2005):
Entries after “also recorded” stand apart in the source; their conditions may differ.

Tests used:
Assay type in all cases: in vivo, hamster
[1] = tested on: arterioles and venules of the dorsal skin flap window preparation; experiment: Subdermal (direct) laser irradiation of blood vessels after glycerol, RE50 for permanent coagulation; conditions: 532 nm, 10 ms pulse, 3 mm spot, versus published native skin values [Barton et al., 1998]
Text: (§1) Anhydrous glycerol was applied to the subdermal side of the dorsal skin flap window preparation. The subdermal side of the window preparation contains a well approximately 2 mm deep and 1 cm in diameter placed directly over the exposed subdermal skin. A small opening at the bottom allows the flow of glycerol out of the well. This well was filled with glycerol and continually refilled for a total time of twenty minutes. Any remaining glycerol was removed from the well at the end of twenty minutes.

[2] = tested on: main arteriole-venule pair of the dorsal skin flap window preparation; experiment: Epidermal laser irradiation of main arteriole-venule pair after glycerol, CDOCT assessment at 24 h
Text: as §1
In this set of experiments, three dorsal skin flap window preparations were treated with glycerol on the subdermal side of the skin. Then, the main arteriole-venule pair (such as the one labeled A and V in FIG. 3) was irradiated from the epidermal side to determine the approximate range of radiant exposures required to permanently destroy blood vessels in skin treated with glycerol. Since no published data exists for direct comparison with controls, two native hamster dorsal skin flap window preparations were irradiated from the epidermal side as well.
(§2) The skin surrounding the main arteriole-venute pair in each window preparation was first imaged using Color Doppler optical coherence tomography (CDOCT) (see FIG. 5). The skin was imaged from the subdermal side since these blood vessels are located approximately 100 μm from the subdermal surface, allowing for accurate determination of vessel flow and size characteristics. In the case of control samples (2), the vessels were irradiated from the epidermal side immediately after imaging the native skin. This was achieved by applying a single pulse from a 532 nm, 3 mm spot size, 10 ms pulse duration laser (Versapulse V, Coherent) to the skin without altering its position relative to the CDOCT sample probe. The experimental setup is illustrated in FIG. 5.
The skin was imaged again to assess changes to blood flow. […] If any changes in flow or vessel size were observed, the skin was not irradiated again and was imaged after 24 hours. In all, 5 pulses were delivered ranging in radiant exposure from 4.13 J/cm^2 to 16 J/cm^2, the maximum allowable for the laser parameters used. In the second control sample, only a single pulse was delivered with a radiant exposure of 12 J/cm^2.
(§3) In the other three samples, glycerol was applied to the subdermal side of the window preparation for twenty minutes after imaging the native skin with CDOCT. The optically cleared skin was then imaged again using CDOCT. Laser pulses were applied in the same manner described above and the skin was re-imaged after twenty-four hours to assess if permanent vessel closure occurred.

[3] = tested on: blood vessels (arterioles and venules) in skin; experiment: Effect of glycerol applied to the subdermal side of skin on blood flow (dorsal skin flap window preparation, CDOCT imaging)
Protocol: Hamsters were anesthetized with a 4:3 mixture of Ketamine (20 mg/ml):Rompun (100 mg/ml) and 0.15 ml/100 g body weight of the solution was delivered IP. […] This in vivo model allows the simultaneous observation of the epidermal and subdermal sides of the skin while maintaining hydration and function [Papenfuss et al., 1979]. The preparation has been used as an in vivo model for optical imaging blood vessels on the subdermal side of skin while maintaining access to the epidermis [Barton et al., 1998, Vargas et al., 2001].
The preparation includes shaving and epilating the entire dorsal area of a hamster. The skin is pulled away from the body along the dorsal midline and sutured to a vertical c-clamp. A circular region 1 cm in diameter is cut from one single thickness of skin, exposing the subdermal side of the opposing thickness of skin. An aluminum chamber is sutured to both sides of the skin, and glass is placed over the cutout section to prevent the tissue from dehydrating on the subdermal side. During the experiments, this glass is removed for improved imaging, and hydration is maintained with application of physiological saline.
Blood vessels in the skin of the dorsal window preparation are located in the subdermal fat and connective tissue layers approximately 400-700 μm beneath the epidermal surface and about 80-100 μm from the exposed subdermal surface of a 100 g hamster. Arterioles and venules in the dorsal window preparation range in diameter between about 50-500 μm in inner diameter, with the main arteriole and venule about 350-500 μm in diameter.
as §1, §2, §3

Compound: OCC(O)CO [glycerol]
- reduction of radiant exposure required for permanent vessel destruction, arterioles [1]: 10 factor
- reduction of radiant exposure required for permanent vessel destruction, venules [1]: 5-8 factor
- vessel outcome 24 h after single pulse of 1.6 J/cm^2 ([2]; glycerol twenty minutes, arteriole 250 μm, venule 300 μm, 450 μm from epidermal surface, skin hydrated): Permanent coagulation has been achieved in both blood vessels; also recorded: flow has not returned to either vessel
- vessel outcome after radiant exposure of 4.13 J/cm^2 ([2]; glycerol, 200 μm arteriole and 410 μm venule): successful permanent coagulation
- vessel outcome after radiant exposure of 4.95 J/cm^2 ([2]; glycerol, 300 μm arteriole and 390 μm venule): only the venule was successfully coagulated
- lowest radiant exposure that successfully destroyed blood vessels ([2]; three window preparations, glycerol before irradiation from the epidermal side, 532 nm, 10 ms, 3 mm spot): 1.6 J/cm^2
- permanent vessel damage from agent alone ([3]; addition of agent to blood vessels, no laser): did not result in any permanent vessel damage
- flow in arterioles ([3]; glycerol added to subdermal side of skin, prolonged periods of exposure): flow in arterioles ceased as well
- flow in venules ([3]; glycerol added to subdermal side of skin, within twenty minutes, venules approximately 100-400 μm in diameter): ceased
- flow in arteriole and venule (Doppler image) ([3]; glycerol for twenty minutes, arteriole 250 μm, venule 300 μm, imaged from subdermal side): no flow remains; also recorded: flow does not remain in either the arteriole or venule
- flow in arterioles and venules after hydration (reversibility) ([3]; skin hydrated in physiologic saline solution after glycerol): returned to physiologic values; also recorded: upon hydration the skin and blood vessels return to their native state
